Where two headings read alike, the source gives them in different places.
What was measured:
Assay type in all cases: cell-based, Escherichia coli
E. coli EKO-35 = experiment: microbe, parasite or virus in culture; conditions: for MIC: Escherichia coli, EKO35, technical duplicate
Experimental: (§1) Single colonies were used to inoculate 3 mL of LB followed by incubation at 37° C. for 18 h with aeration at 220 rpm. The bacterial cells were harvested by centrifugation and resuspended in phosphate buffered saline (PBS) ([pH 7.4], 137 mM NaCl (Bioshop), 2.7 mM KCl (Bioshop), 10 mM Na2PO4 (Bioshop) and 1.8 mM K2PO4) to an OD600 nm˜1.0, followed by 1/2000 dilution into MHB II.
(§2) To a 384-well microtiter plate (Corning, untreated polystyrene), 500 nL of compound was dispensed, in duplicate, and serially titrated 2-fold using an Echo 550 acoustic liquid dispenser (Labcyte Inc.). […] As a solvent control, 500 nL of DMSO was applied to wells that contained no compound. Using a multichannel pipette, 50 μL of the prepared bacterial inoculum was applied to each well. To enable background correction post-incubation, the OD600 nm was measured (Biotek Synergy Neo2 microplate reader) prior to incubation. The plates were incubated at 37° C. with aeration at 900 rpm for 18 h. The plates were equilibrated to room temperature and the OD600 nm measured using a BioTek Synergy Neo2 microplate reader. Data was analyzed in both Prism (GraphPad, Version 9.2.0) and Microsoft Excel (Version 16.53). Raw data were input into Microsoft Excel and the pre-incubation OD600 nm measurements were subtracted from the post-incubation OD600 nm measurements. These corrected measurements were input into Prism 9 as a grouped analysis. […] All other MIC values were adjusted accordingly and visualized using the single-color scale grouped heat map function. Identification of compound chemical properties was achieved using DataWarrior (Version 5.5.0). Using PubChem, the SMILES chemical notation for each compound was obtained and compiled in Microsoft Excel. The resulting spreadsheet was input into DataWarrior and properties were calculated from the compound chemical structures.

E. coli ΔtolC = experiment: microbe, parasite or virus in culture
Experimental: as §1, §2

[1] = test system: wild-type E. coli K-12 str. BW25113; experiment: microbe, parasite or virus in culture; conditions: Escherichia coli, BW25113, technical duplicate
Experimental: as §1, §2

EKO-35 araC::acrBD408A = experiment: MIC susceptibility profiling, efflux platform
Experimental: as §1, §2

EKO-35 araC::acrB = experiment: MIC susceptibility profiling, efflux platform
Experimental: as §1, §2

EKO-35 araC::acrD = experiment: MIC susceptibility profiling, efflux platform
Experimental: as §1, §2

EKO-35 araC::acrEF = experiment: MIC susceptibility profiling, efflux platform
Experimental: as §1, §2

EKO-35 araC::emrAB = experiment: MIC susceptibility profiling, efflux platform
Experimental: as §1, §2

EKO-35 araC::emrKY = experiment: MIC susceptibility profiling, efflux platform
Experimental: as §1, §2

EKO-35 araC::macAB = experiment: MIC susceptibility profiling, efflux platform
Experimental: as §1, §2

EKO-35 araC::mdtBC = experiment: MIC susceptibility profiling, efflux platform
Experimental: as §1, §2

EKO-35 araC::mdtEF = experiment: MIC susceptibility profiling, efflux platform
Experimental: as §1, §2

[2] = test system: EKO-35 araC::mexCD (MexCD from P. aeruginosa); experiment: MIC susceptibility profiling, efflux platform
Experimental: as §1, §2

wild-type (WT) K-12-Pore = experiment: microbe, parasite or virus in culture; conditions: Escherichia coli, technical duplicate
Experimental: (§3) For genomic integration of the pore, the fhuA ΔC/Δ4L gene and the adjacent gentamicin resistance cassette were amplified using a high-fidelity polymerase and the fhuA_40_Up/gImS_3680_Low primers (Table 4). Integration of the pore gene was performed as described above. The pore gene was introduced into the intergenic region between the glmS and pstS genes, with gene expression under the control of a constitutive promoter (Kearse, M. et al., 2012). Genomic integrations were verified using PCR (Primers: pstS_520_Up/glmS_3680_Low, Table 4). Successful integrations were transformed with pCP20 to remove the gentamicin resistance cassette as previously described. Activity of the pore was confirmed through susceptibility testing with the large antibiotic vancomycin prior to phenotypic profiling and further susceptibility testing.
as §1, §2

ΔtolC-Pore = experiment: microbe, parasite or virus in culture
Experimental: as §3, §1, §2

EKO-35-Pore = experiment: MIC susceptibility profiling, porinated strain; conditions: for MIC: Escherichia coli, technical duplicate
Experimental: as §3, §1, §2

EKO-35 araC::mdtBC Pore = experiment: MIC susceptibility profiling, porinated efflux platform
Experimental: as §3, §1, §2

EKO-35 araC::mdtEF Pore = experiment: as above
Experimental: as §3, §1, §2

For `COc1cccc2c1C(=O)c1c(O)c3c(c(O)c1C2=O)C[C@@](O)(C(C)=O)C[C@@H]3O[C@H]1C[C@H](N)[C@H](O)[C@H](C)O1` [daunorubicin], the “Fold change of MICs” value (E. coli EKO-35; EKO-35 compared to EKO-35 (reference)) was 1 fold, the MIC (E. coli EKO-35; Table 10, without pore, read-out: Minimum inhibitory concentration (MIC), EKO-35) was 3.12 µg/mL and the MIC (E. coli EKO-35; Table 13A, non-porinated, read-out: Minimum Inhibitory Concentration, EKO-35) was 3.12 µg/mL. The MIC (E. coli ΔtolC; Escherichia coli, 18 h, read-out: Minimum Inhibitory Concentration, ΔtolC) was 1.56 µg/mL, the “Minimum inhibitory concentration (MIC), ΔtolC” value (E. coli ΔtolC; Table 10, without pore, technical duplicate) was 1.563 µg/mL and the MIC ([1]; Table 10, without pore, read-out: Minimum inhibitory concentration (MIC), K-12) was 200 µg/mL. For the same compound, the MIC ([1]; Table 13A, non-porinated, read-out: Minimum Inhibitory Concentration, K-12) was 200 µg/mL, the “Fold change of MICs” value (EKO-35 araC::acrBD408A; EKO-35 araC::acrBD408A compared to EKO-35) was 1 fold and the MIC (EKO-35 araC::acrBD408A; Escherichia coli, Table 13B, non-porinated, technical duplicate, read-out: Minimum Inhibitory Concentration, EKO-35 araC::acrBD408A) was 3.12 µg/mL. The “Fold change of MICs” value (EKO-35 araC::acrB; EKO-35 araC::acrB compared to EKO-35) was 64 fold, the MIC (EKO-35 araC::acrB; Escherichia coli, Table 13A, non-porinated, technical duplicate, read-out: Minimum Inhibitory Concentration, EKO-35 araC::acrB) was 200 µg/mL and the “Fold change of MICs” value (EKO-35 araC::acrD; EKO-35 araC::acrD compared to EKO-35) was 2 fold. The MIC (EKO-35 araC::acrD; Escherichia coli, Table 13A, non-porinated, technical duplicate, read-out: Minimum Inhibitory Concentration, EKO-35 araC::acrD) was 6.25 µg/mL, the “Fold change of MICs” value (EKO-35 araC::acrEF; EKO-35 araC::acrEF compared to EKO-35) was 64 fold and the MIC (EKO-35 araC::acrEF; Escherichia coli, Table 13A, non-porinated, technical duplicate, read-out: Minimum Inhibitory Concentration, EKO-35 araC::acrEF) was 200 µg/mL. For the same compound, the “Fold change of MICs” value (EKO-35 araC::emrAB; EKO-35 araC::emrAB compared to EKO-35) was 1 fold, the MIC (EKO-35 araC::emrAB; Escherichia coli, Table 13B, non-porinated, technical duplicate, read-out: Minimum Inhibitory Concentration, EKO-35 araC::emrAB) was 3.12 µg/mL and the “Fold change of MICs” value (EKO-35 araC::emrKY; EKO-35 araC::emrKY compared to EKO-35) was 1 fold. For the same compound, the MIC (EKO-35 araC::emrKY; Escherichia coli, Table 13B, non-porinated, technical duplicate, read-out: Minimum Inhibitory Concentration, EKO-35 araC::emrKY) was 3.12 µg/mL, the “Fold change of MICs” value (EKO-35 araC::macAB; EKO-35 araC::macAB compared to EKO-35) was 2 fold and the MIC (EKO-35 araC::macAB; Escherichia coli, Table 13B, non-porinated, technical duplicate, read-out: Minimum Inhibitory Concentration, EKO-35 araC::macAB) was 6.25 µg/mL. For the same compound, the “Fold change of MICs” value (EKO-35 araC::mdtBC; EKO-35 araC::mdtBC compared to EKO-35) was 1 fold, the MIC (EKO-35 araC::mdtBC; Escherichia coli, Table 13B, non-porinated, technical duplicate, read-out: Minimum Inhibitory Concentration, EKO-35 araC::mdtBC) was 1.56 µg/mL and the “Fold change of MICs” value (EKO-35 araC::mdtEF; EKO-35 araC::mdtEF compared to EKO-35) was 64 fold. The MIC (EKO-35 araC::mdtEF; Escherichia coli, Table 13A, non-porinated, technical duplicate, read-out: Minimum Inhibitory Concentration, EKO-35 araC::mdtEF) was 200 µg/mL, the “Fold change of MICs” value ([2]; EKO-35 araC::mexCD compared to EKO-35) was 32 fold and the MIC ([2]; Table 13B, non-porinated, technical duplicate, read-out: Minimum Inhibitory Concentration, EKO-35 araC::mexCD) was 100 µg/mL. For the same compound, the MIC (wild-type (WT) K-12-Pore; Table 10, with pore, read-out: Minimum inhibitory concentration (MIC), Pore K-12) was 100 µg/mL, the MIC (wild-type (WT) K-12-Pore; Table 14A, porinated, read-out: Minimum inhibitory concentration, K-12 (WT)-Pore) was 100 µg/mL and the MIC (ΔtolC-Pore; Escherichia coli, 18 h, read-out: Minimum inhibitory concentration, ΔtolC-Pore) was 0.781 µg/mL. For the same compound, the “Minimum inhibitory concentration (MIC), Pore ΔtolC” value (ΔtolC-Pore; Table 10, with pore, technical duplicate) was 0.781 µg/mL, the “Fold changes of MICs” value (EKO-35-Pore; EKO-35-Pore compared to EKO-35-Pore (reference)) was 1 fold and the MIC (EKO-35-Pore; Table 10, with pore, read-out: Minimum inhibitory concentration (MIC), Pore EKO-35) was 0.781 µg/mL. The MIC (EKO-35-Pore; Table 14A, porinated, read-out: Minimum inhibitory concentration, EKO-35-Pore) was 0.781 µg/mL, the “Fold changes of MICs” value (EKO-35 araC::mdtBC Pore; EKO-35 araC::mdtBC Pore compared to EKO-35-Pore) was 4 fold and the MIC (EKO-35 araC::mdtBC Pore; Escherichia coli, EKO-35 araC::mdtBC Pore, technical duplicate, read-out: Minimum inhibitory concentration) was 3.12 µg/mL. The “efflux pump-mediated resistance vs EKO-35-Pore” value (EKO-35 araC::mdtBC Pore; MdtBC with the pore) was “associated with resistance”, the “Fold changes of MICs” value (EKO-35 araC::mdtEF Pore; EKO-35 araC::mdtEF Pore compared to EKO-35-Pore) was 64 fold and the MIC (EKO-35 araC::mdtEF Pore; Escherichia coli, Table 14A, porinated, technical duplicate, read-out: Minimum inhibitory concentration, EKO-35 araC::mdtEF Pore) was 50 µg/mL.

Reference: US20230407243A1, “GENETIC PLATFORM TO INVESTIGATE THE FUNCTIONS OF BACTERIAL DRUG EFFLUX PUMPS” (priority 2022, published 2023)
